Reference: patent publication US20120316169A1, “2-ARYL-PROPIONAMIDE DERIVATIVES USEFUL AS BRADYKININ RECEPTOR ANTAGONISTS AND PHARMACEUTICAL COMPOSITIONS CONTAINING THEM” (DOMPÉ S.P.A., priority 2009, published 2012)

target: T1, BKB1 receptors (Homo sapiens, UniProt P46663); experiment: Calcium mobilization assay (FLIPR), B1 receptors in IMR-90 cells; assay type: cell-based; conditions: Human IMR-90 lung fibroblast cells, up-regulated BKB1 receptors, agonist desArg10-kallidin (DAKD) 2 to 8 nM, calcium-dependent fluorescence
T1 construct: Human (IMR-90) lung fibroblast cells expressing native B1 receptors; endogenous in cells; host or cells: IMR-90 human lung fibroblasts, interleukin-treated to up-regulate BKB1 receptors
T1 sequence (P46663 1-353): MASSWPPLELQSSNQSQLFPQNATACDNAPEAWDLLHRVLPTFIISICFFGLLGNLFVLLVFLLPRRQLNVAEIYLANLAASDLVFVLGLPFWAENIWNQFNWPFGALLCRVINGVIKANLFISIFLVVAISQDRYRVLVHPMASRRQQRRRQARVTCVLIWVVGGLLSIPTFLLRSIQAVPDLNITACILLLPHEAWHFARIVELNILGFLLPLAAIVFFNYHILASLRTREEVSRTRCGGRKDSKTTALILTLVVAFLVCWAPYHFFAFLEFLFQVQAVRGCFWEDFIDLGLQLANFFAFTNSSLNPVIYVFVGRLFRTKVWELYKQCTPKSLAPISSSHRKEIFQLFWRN
Protocol: Calcium mobilization assay (FLIPR)—Human (IMR-90) lung fibroblast cells expressing native B1 receptors were harvested by trypsinization and seeded into black wall/clear bottom 96-well plates (Costar 3904; Corning Life Sciences, Acton, Mass.) at approximately 13,000 cells/well. After 1 day incubation, cells were treated with […] (0.35 ng/ml) in 10% FBS/MEM for 2 h to up-regulate BKB1 receptors. Induced cells were loaded with fluorescent calcium indicator by incubation with 2.3 μM Fluo-4/acetoxymethyl ester (Invitrogen) at 37° C. for 1.5 h in the presence of an anion transport inhibitor (2.5 mM probenecid in 1% FBS/MEM). Extracellular dye was removed by washing with assay buffer (2.5 mM probenecid, 0.1% BSA in 20 mM HEPES/HBSS without bicarbonate or phenol red, pH 7.5) and cell plates were kept in the dark until used. Test compounds were assayed at eight concentrations in triplicate. Addition of test compounds to the cell plate and incubation for 5 min at 35° C., followed by the addition of 2 to 8 nM final BK1 agonist desArg^10-kallidin (DAKD, 3×EC50) was carried out in the fluorimetric imaging plate reader (FLIPR; Molecular Devices) while continuously monitoring calcium-dependent fluorescence.

| Compound | IC50 [µM] |
| --- | --- |
| COc1cccc(Nc2ccc(C(C)C(=O)NC3CCN(Cc4ccccc4)CC3)cc2)c1 (centres unmarked) [Compound 9, 2-{4-[(3-methoxyphenyl)amino]phenyl}-N-(1-benzylpiperidin-4-yl)propanamide] | 7.76 |
| CC(C)(C)NC(=O)CNC(=O)C(C)(C)c1ccc(OS(=O)(=O)C(F)(F)F)cc1 [Compound 6, 4-(2-methyl-1-{[2-(tert-butylamino)-2-oxoethyl]amino}-1-oxopropan-2-yl)phenyl trifluoromethanesulfonate] | 17.8 |
| COC(=O)C(CNC(=O)OC(C)(C)C)NC(=O)C(C)c1ccc(Oc2cccc3ccccc23)cc1 (centres unmarked) [Compound 60, methyl 3-[(tert-butoxycarbonyl)amino]-2-[4-(naphthalen-1-yloxyphenyl)propanoyl]aminopropanoate] | 10.5 |
| CC(C(=O)Nc1ccncn1)c1cccc(Nc2ccc(N3CCOCC3)cc2)c1 (centres unmarked) [Compound 15, 2-(3-{[4-(morpholin-4-yl)phenyl]amino}phenyl)N-(pyrimidin-4-yl)propanamide] | 9.12 |
| CC(F)(C(N)=O)c1ccc(OS(=O)(=O)C(F)(F)F)cc1 (centres unmarked) [Compound 1, 4-(1-amino-2-fluoro-1-oxopropan-2-yl)phenyl trifluoromethanesulfonate] | 6.46 |
| COc1cccc(Nc2ccc(C(C)C(=O)Nc3cc(C)nn3C)cc2)c1 (centres unmarked) [Compound 10] | 7.94 |
| CC(C(=O)NCCOc1ccc(F)cc1)c1cccc(OS(=O)(=O)C(F)(F)F)c1 (centres unmarked) [Compound 20, 3-(1-{[2-(4-fluorophenoxy)ethyl]amino}-1-oxopropan-2-yl)phenyl trifluoromethanesulfonate] | 16.6 |
| Cc1cc(NC(=O)C(C)c2cccc(C(=O)c3cccs3)c2)n(C)n1 (centres unmarked) [Compound 24, N-(1,3-dimethyl-1H-pyrazol-5-yl)-2-[3-(thiophen-2-ylcarbonyl)phenyl]propanamide] | 7.41 |
| CC(F)(C(=O)NCCNc1ccccn1)c1ccc(OS(=O)(=O)C(F)(F)F)cc1 (centres unmarked) [Compound 3, 4-(2-fluoro-1-oxo-1-{[2-(pyridin-2-ylamino)ethyl]amino}propan-2-yl)phenyl trifluoromethanesulfonate] | 13.2 |
| COc1cccc(Nc2ccc(C(C)C(=O)Nc3ccncn3)cc2)c1OC (centres unmarked) [Compound 26, 2-{4-[(2,3-dimethoxyphenyl)amino]phenyl}-N-(pyrimidin-4-yl)propanamide] | 5.75 |
| CC(C(=O)NCC(C)(C)N)c1cccc(Oc2cccc(OC(F)(F)F)c2)c1 (centres unmarked) [Compound 18] | 2.09 |
| CC(C(=O)Nc1ccccc1)c1cccc(C(=O)c2ccccc2)c1 (centres unmarked) [Compound 35, N-phenyl-2-[3-(phenylcarbonyl)phenyl]propanamide] | 10 |
| CC(C)Cc1ccc(C(C)C(=O)NC(N)=O)cc1 (centres unmarked) [Compound 38, N-carbamoyl-2-[4-(2-methylpropyl)phenyl]propanamide] | 20 |
| CCOCCCNC(=O)C(C)c1cccc(Nc2cc(OC)cc(C(F)(F)F)c2)c1 (centres unmarked) [Compound 52, 2-(3-{[3-methoxy-5-(trifluoromethyl)phenyl]amino}phenyl)-N-(3-ethoxypropyl)propanamide] | 8.91 |
| Cc1ccc(OCC(O)CNC(=O)C(C)c2ccc(Nc3nc(C(F)(F)F)co3)cc2)cc1C (centres unmarked) [Compound 32, N-[2-hydroxy-3-(3,4-dimethylphenoxy)propyl]-2-(4-{[4-(trifluoromethyl)-1,3-oxazol-2-yl]amino}phenyl)propanamide] | 8.32 |
| CC(C(=O)NC(c1ccco1)N1CCOCC1)c1ccc(Nc2nc(C(F)(F)F)cs2)cc1 (centres unmarked) [Compound 43, N-[furan-2-yl(morpholin-4-yl)methyl]-2-(4-{[4-(trifluoromethyl)-1,3-thiazol-2-yl]amino}phenyl)propanamide] | 12.9 |
| Cc1cc(NC(=O)C(C)c2cccc(Oc3cccc(F)c3)c2)n(C)n1 (centres unmarked) [Compound 11, N-(1,3-dimethyl-1H-pyrazol-5-yl)-2-[3-(3-fluorophenoxy)phenyl]propanamide] | 11.2 |
| Cc1ccc(OCC(O)CNC(=O)C(C)c2ccc(OS(=O)(=O)C(F)(F)F)cc2)cc1C (centres unmarked) [Compound 51, 4-[3-(3,4-dimethylphenoxy)-2-hydroxypropyl]amino-1-oxopropan-2-yl)phenyl trifluoromethanesulfonate] | 11.5 |
| CC(C)(C(=O)NCCc1ccncc1)c1ccc(OS(=O)(=O)C(F)(F)F)cc1 [Compound 7, 4-(2-methyl-1-oxo-1-{[2-(pyridin-4-yl)ethyl]amino}propan-2-yl)phenyl trifluoromethanesulfonate] | 11.5 |
| COc1cccc(Nc2ccc(C(C)C(=O)Nc3cc(C)nn3C)cc2)c1OC (centres unmarked) [Compound 25, 2-{4-[(2,3-dimethoxyphenyl)amino]phenyl}-N-(1,3-dimethyl-1H-pyrazol-5-yl)propanamide] | 3.09 |
| CCn1nc(C)cc1NC(=O)C(C)c1ccc(Nc2nc(C(F)(F)F)cs2)cc1 (centres unmarked) [Compound 41, N-(1-ethyl-3-methyl-1H-pyrazol-5-yl)-2-(4-{[4-(trifluoromethyl)-1,3-thiazol-2-yl]amino}phenyl)propanamide] | 10 |

More lines, now with the values ahead:

| IC50 [µM] | Compound |
| --- | --- |
| 3.39 | CC(C(=O)Nc1ccncn1)c1ccc(Oc2ccc(F)cc2)cc1 (centres unmarked) [Compound 72, 2-[4-(4-fluorophenoxy)phenyl]-N-(pyrimidin-4-yl)propanamide] |
| 7.76 | CCNC(=O)C(C)c1cccc(Nc2cc(OC)cc(C(F)(F)F)c2)c1 (centres unmarked) [Compound 56, N-ethyl-2-(3-{[3-methoxy-5-(trifluoromethyl)phenyl]amino}phenyl)propanamide] |
| 4.79 | CC(C(=O)NCCC1CCCN1C)c1ccc(Oc2cccc3ccccc23)cc1 (centres unmarked) [Compound 65, 2-[4-(naphthalen-1-yloxy)phenyl]-N-[2-(1-methylpyrrolidin-2-yl)ethyl]propanamide] |
| 5.89 | COc1cc(Nc2cccc(C(C)C(=O)NCC(C)(C)N)c2)cc(C(F)(F)F)c1 (centres unmarked) [Compound 58, N-(2-amino-2-methylpropyl)-2-[3-{[3-methoxy-5-(trifluoromethyl)phenyl]amino}phenyl]propanamide] |
| 4.37 | CC(C(=O)Nc1cnccn1)c1ccc(N2CCCCC2)cc1 (centres unmarked) [Compound 77, 2-[4-(piperidin-1-yl)phenyl]-N-(pyrazin-2-yl)propanamide] |
| 4.07 | CC(C(=O)NCCN1CCOCC1)c1ccc(Oc2cccc3ccccc23)cc1 (centres unmarked) [Compound 67, 2-[4-(naphthalen-1-yloxy)phenyl]-N-[2-(morpholin-4-yl)ethyl]propanamide] |
| 6.17 | CC(C(=O)Nc1ccncc1)c1ccc(Oc2cccc(F)c2)cc1 (centres unmarked) [Compound 68, 2-[4-(3-fluroophenoxy)phenyl]-N-(pyridin-4-yl)propanamide] |
| 6.61 | CC(=O)NCCNC(=O)C(C)c1ccc(Oc2cccc3ccccc23)cc1 (centres unmarked) [Compound 66, N-[2-(acetylamino)ethyl]-2-[4-(naphthalen-1-yloxy)phenyl]propanamide] |
| 5.75 | CC(C(=O)Nc1ccncc1)c1ccc(Nc2ccccc2-n2cccc2)cc1 (centres unmarked) [Compound 82] |
| 0.891 | CC(C(=O)Nn1cnnc1)c1ccc(NS(=O)(=O)c2ccc(Cl)cc2)cc1 (centres unmarked) [Compound 78, 2-(4-{[(4-chlorophenyl)sulfonyl]amino}phenyl)-N-(4H-1,2,4-triazol-4-yl) propanamide] |
| 1.35 | CC(C(N)=O)c1ccc(Nc2ccc3c(c2)OC(F)(F)O3)cc1 (centres unmarked) [Compound 79, 2-{4-[(2,2-difluoro-1,3-benzodioxol-5-yl)amino]phenyl}propanamide] |
